Assay results published in ChEMBL document CHEMBL3045659, “Molecular docking studies on analogues of quercetin with d-alanine:d-alanine ligase of Helicobacter pylori” (Med Chem Res, 2013).
Converted amounts (≈) assume the structure as drawn.

Key:
Escherichia coli [1] = assay: Antibacterial activity against Escherichia coli 25922 assessed as growth inhibition; assay type: functional
Helicobacter pylori [2] = assay: Antibacterial activity against Helicobacter pylori 43504 assessed as growth inhibition; assay type: functional
Escherichia coli [3] = assay: Antibacterial activity against Escherichia coli JM019 assessed as growth inhibition; assay type: functional
Helicobacter pylori [4] = assay: Antibacterial activity against Helicobacter pylori SS1 assessed as growth inhibition; assay type: functional
[5] = target: T1, D-alanine--D-alanine ligase (Helicobacter pylori (strain HPAG1), UniProt Q1CTD3); assay: Competitive inhibition of Helicobacter pylori Ddl using ATP as substrate
T1 sequence (Q1CTD3 whole entry): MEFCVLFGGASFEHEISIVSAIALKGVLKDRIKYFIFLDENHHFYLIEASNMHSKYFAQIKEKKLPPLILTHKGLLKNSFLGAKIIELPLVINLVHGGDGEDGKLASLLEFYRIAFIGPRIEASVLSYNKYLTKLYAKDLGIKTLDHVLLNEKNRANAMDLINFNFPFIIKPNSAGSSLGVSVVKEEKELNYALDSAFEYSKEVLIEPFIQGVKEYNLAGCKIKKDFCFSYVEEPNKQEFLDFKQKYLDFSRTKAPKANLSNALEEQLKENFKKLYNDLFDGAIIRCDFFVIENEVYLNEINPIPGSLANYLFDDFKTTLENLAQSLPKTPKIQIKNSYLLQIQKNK

[6] = target: D-alanine--D-alanine ligase B (Escherichia coli K-12, UniProt P07862); assay: Competitive inhibition of Escherichia coli DdlB using ATP as substrate
[7] = target: T1, D-alanine--D-alanine ligase; assay: Binding affinity to Helicobacter pylori Ddl by surface plasmon resonance biosensor technology

SMILES	MIC (Escherichia coli [1]) [µg/mL]	MIC (Helicobacter pylori [2]) [µg/mL]	MIC (Escherichia coli [3]) [µg/mL]	MIC (Helicobacter pylori [4]) [µg/mL]	IC50 [5] [µM]	Ki [5] [µM]	IC50 [6] [µM]	Kd [7] [µM]
O=c1cc(-c2ccc(O)cc2)oc2cc(O)cc(O)c12 [APIGENIN]	> 200	25 (≈ 92.5 µM)	200 (≈ 740 µM)	25 (≈ 92.5 µM)	133	31	163	
O=c1c(O)c(-c2ccc(O)c(O)c2)oc2cc(O)cc(O)c12 [QUERCETIN]	300 (≈ 993 µM)	100 (≈ 331 µM)	300 (≈ 993 µM)	200 (≈ 662 µM)	48.5	4.3	19.9	12.9
